Here are results for eleven compounds from ChEMBL document CHEMBL1201862, “PubChem BioAssay data set” (2004).

Test systems include HT-29; SF-539; SK-OV-3; HOP-92; 786-0; A549; NCI-H522; LOX IMVI; SK-MEL-5; HOP-62; HCT-116; UACC-62; RPMI-8226; COLO 205; TK-10; Hs-578T; K562; DU-145; SF-268; MCF7.
Common to all, as to assay: growth of human tumour cells (NCI), 48 h

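Following 48 hours of exposure in 96-well plates, responses at five concentrations were used to interpolate endpoints linearly. GI50: concentration for 50% inhibition of growth.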 Calls of active or inactive are those of the source. Rule as the data show it: active = GI50 up to about 1.1 µM and inactive = higher.

For the compound `C[C@H](CO)C1=CC(C#C[Si](C)(C)C)N(C(=O)Oc2ccccc2)c2ccccc21` (some centres undefined), the GI50 in the assay with HT-29 was 4.92 µM (inactive); with SF-539 it was 16 µM (inactive); in the assay on SK-OV-3 it was 11.6 µM (inactive); with HOP-92, 12.9 µM (inactive); with 786-0 it was 14.2 µM (inactive); in the assay on A549 it was 11.6 µM (inactive). The GI50 in the assay with NCI-H522 is 3.94 µM (inactive); in the assay with LOX IMVI, 15.7 µM (inactive); in the assay on SK-MEL-5 it was 12.7 µM (inactive); with HOP-62 it was 6.05 µM (inactive); with HCT-116, 10.8 µM (inactive); in the assay on UACC-62, 5.3 µM (inactive). In addition, the GI50 with RPMI-8226 is 20 µM (inactive); in the assay with COLO 205, 5.6 µM (inactive); in the assay with TK-10, 17 µM (inactive); in the assay with Hs-578T, 10.2 µM (inactive); in the assay on K562 it was 4.54 µM (inactive); in the assay on DU-145, 16.9 µM (inactive). Further, the GI50 in the assay on SF-268 is 13.3 µM (inactive).

For `CC(C)(C)/C(O)=C\c1nc2cc(C(F)(F)F)ccc2[nH]c1=O`, the GI50 was 47.5 µM (inactive) in the assay with HT-29; > 100 µM (inactive) with SK-OV-3; > 100 µM (inactive) in the assay on HOP-92; > 100 µM (inactive) in the assay with 786-0; > 100 µM (inactive) with A549; > 100 µM (inactive) in the assay with NCI-H522. Also, the GI50 in the assay with LOX IMVI, with SK-MEL-5, in the assay with HOP-62, in the assay on HCT-116, in the assay on UACC-62 and in the assay with RPMI-8226 was > 100 µM (inactive) throughout. In addition, the GI50 is > 100 µM (inactive) with COLO 205; > 100 µM (inactive) with TK-10; > 100 µM (inactive) in the assay on Hs-578T; 27.9 µM (inactive) with K562; > 100 µM (inactive) in the assay on DU-145; > 100 µM (inactive) in the assay with SF-268.

As to `Cc1cc2c(cc1C)[n+]([O-])c(C(=O)CC(=O)C(=O)Nc1ccccc1C)c(C)[n+]2[O-]`, the GI50 is > 100 µM (inactive) in the assay on HT-29; > 100 µM (inactive) in the assay on SF-539; > 100 µM (inactive) in the assay with SK-OV-3; > 100 µM (inactive) in the assay with HOP-92; > 100 µM (inactive) in the assay on 786-0; 56.2 µM (inactive) with A549. Also, the GI50 in the assay with NCI-H522 is 54 µM (inactive); in the assay on LOX IMVI, > 100 µM (inactive); in the assay on SK-MEL-5, > 100 µM (inactive); with HOP-62 it was > 100 µM (inactive); in the assay with HCT-116, > 100 µM (inactive); with UACC-62 it was > 100 µM (inactive). For the same compound, the GI50 in the assay with RPMI-8226 was > 100 µM (inactive); in the assay on COLO 205, 46.5 µM (inactive); in the assay on TK-10 it was > 100 µM (inactive); in the assay on K562, > 100 µM (inactive); with SF-268, > 100 µM (inactive).

Turning to `Oc1ccc(Br)cc1/C=N/c1c(NC2CCCCC2)oc2ccc(Br)cc12`, the GI50 in the assay on HT-29 was 26.8 µM (inactive); with SF-539 it was 61.2 µM (inactive); in the assay on MCF7 it was 16.2 µM (inactive); with SK-OV-3 it was 87.5 µM (inactive); with 786-0 it was 37.8 µM (inactive); in the assay with A549, 54 µM (inactive). Moreover, the GI50 was 18.3 µM (inactive) in the assay with LOX IMVI; 40.6 µM (inactive) in the assay with SK-MEL-5; 68.4 µM (inactive) in the assay on HOP-62; 13.7 µM (inactive) with HCT-116; 38.6 µM (inactive) in the assay with UACC-62; 7.18 µM (inactive) with RPMI-8226. The GI50 in the assay on COLO 205 was > 10 µM (inactive); in the assay with TK-10 it was 40.6 µM (inactive); in the assay with K562, 10.7 µM (inactive); in the assay on DU-145, 60.3 µM (inactive); in the assay with SF-268, 33.2 µM (inactive).

For `CC(=O)/C(=C\n1c(=S)[nH]c2ccc([N+](=O)[O-])cc21)C(=O)Nc1ccccc1C`, the GI50 with HT-29 was > 100 µM (inactive); in the assay on SF-539, 8.26 µM (inactive); with MCF7, > 100 µM (inactive); in the assay with SK-OV-3, > 100 µM (inactive); in the assay with 786-0 it was > 100 µM (inactive); in the assay with A549 it was > 100 µM (inactive). Further, the GI50 is > 100 µM (inactive) with NCI-H522; > 100 µM (inactive) in the assay with LOX IMVI; 78.3 µM (inactive) in the assay on SK-MEL-5; > 100 µM (inactive) with HOP-62; > 100 µM (inactive) in the assay with HCT-116; > 100 µM (inactive) in the assay with UACC-62. Further, the GI50 in the assay with RPMI-8226, with COLO 205, with K562 and in the assay on DU-145 was > 100 µM (inactive) in each case.

For `O=C(N/C(=C/c1cccc([N+](=O)[O-])c1)c1nc2cc(Cl)ccc2[nH]1)c1ccccc1`, the GI50 with HT-29 was 8.95 µM (inactive); in the assay with SF-539 it was 3.51 µM (inactive); in the assay on SK-OV-3, 17.3 µM (inactive); in the assay with HOP-92, 19.1 µM (inactive); in the assay with 786-0, 15.7 µM (inactive); with A549, 14.2 µM (inactive). Besides, the GI50 in the assay on NCI-H522 was 4.07 µM (inactive); with LOX IMVI it was 4.53 µM (inactive); with SK-MEL-5 it was 2.82 µM (inactive); with HOP-62, 17.7 µM (inactive); with HCT-116 it was 8.95 µM (inactive); with UACC-62, 5.4 µM (inactive). Also, the GI50 is 2.71 µM (inactive) with RPMI-8226; 41.9 µM (inactive) in the assay on COLO 205; 3.67 µM (inactive) with TK-10; 6.21 µM (inactive) with K562; 11.7 µM (inactive) in the assay on SF-268.

`CNC(=O)N(CCC#N)CCCN(C(=O)NC)c1ccccc1`: the GI50 in the assay with HT-29, in the assay on SF-539, in the assay with MCF7, with SK-OV-3, in the assay with HOP-92 and in the assay with 786-0 was > 100 µM (inactive) throughout. Moreover, the GI50 in the assay with A549, in the assay on NCI-H522, in the assay on LOX IMVI, with SK-MEL-5, in the assay with HOP-62 and in the assay with HCT-116 was > 100 µM (inactive) throughout. Besides, the GI50 in the assay with UACC-62, in the assay on RPMI-8226, in the assay on COLO 205, with TK-10, with K562 and in the assay on DU-145 was > 100 µM (inactive) throughout.

Consider `Nc1ccn(CCCC(c2ccccc2)P(=O)(O)O)c(=O)n1` (centres undefined), for which the GI50 in the assay on HT-29 was > 100 µM (inactive); in the assay with SF-539, > 100 µM (inactive); with SK-OV-3, > 100 µM (inactive); with HOP-92, 91.4 µM (inactive); in the assay with 786-0, > 100 µM (inactive); in the assay with A549 it was > 100 µM (inactive). For the same compound, the GI50 with NCI-H522, with LOX IMVI, in the assay with SK-MEL-5, in the assay on HOP-62, in the assay on HCT-116 and in the assay on UACC-62 was > 100 µM (inactive) in each case. Further, the GI50 in the assay on RPMI-8226, in the assay on COLO 205, with TK-10, in the assay with K562 and in the assay with SF-268 was > 100 µM (inactive) throughout.

With `C=C1CC2CC[C@@]34C[C@@H]5O[C@@H]6C(O[C@H]7CC[C@H](CC(=O)OC8[C@@H](C)C9OC%10C[C@]%11(C[C@@H]%12O[C@@]%13(C[C@@H](C)[C@@H]%12O%11)C[C@H](C)[C@@H]%11OC%12CC(C(O)CO)OC%12C[C@@H]%11O%13)OC%10CC9O[C@H]8C[C@H]8O[C@@H](CC[C@@H]1O2)C[C@@H](C)C8=C)O[C@@H]7[C@@H]6O3)C5O4` (some centres undefined), the GI50 in the assay with HT-29 was 0.000357 µM (active); with SF-539, 0.000933 µM (active); in the assay with MCF7, 0.000148 µM (active); with SK-OV-3, 0.00166 µM (active); in the assay with HOP-92, 0.00236 µM (active); with 786-0, 0.00211 µM (active). The GI50 was 0.00168 µM (active) in the assay on A549; 0.000213 µM (active) in the assay with NCI-H522; 0.000469 µM (active) with LOX IMVI; 0.000308 µM (active) with SK-MEL-5; 0.00141 µM (active) with HOP-62; 0.000582 µM (active) in the assay on HCT-116. Moreover, the GI50 is 0.000494 µM (active) in the assay on UACC-62; 0.00185 µM (active) in the assay on RPMI-8226; 0.000667 µM (active) in the assay on COLO 205; 0.00863 µM (active) in the assay with TK-10; 0.000755 µM (active) with K562; 0.00229 µM (active) in the assay with SF-268.

Regarding `CN(C)c1cccc(-c2cc(O)c3cc4c(cc3n2)OCO4)c1`, the GI50 was 0.202 µM (active) with HT-29; 0.171 µM (active) in the assay on SF-539; 0.123 µM (active) in the assay with SK-OV-3; 2.15 µM (inactive) in the assay with HOP-92; 0.262 µM (active) in the assay with 786-0; 0.343 µM (active) in the assay with A549. Further, the GI50 in the assay on NCI-H522 was 0.0505 µM (active); in the assay with LOX IMVI it was 0.192 µM (active); in the assay on SK-MEL-5, 0.0776 µM (active); with HOP-62, 0.274 µM (active); in the assay on HCT-116 it was 0.138 µM (active); in the assay with UACC-62 it was 0.136 µM (active). For the same compound, the GI50 was 0.473 µM (active) with RPMI-8226; 0.2 µM (active) with COLO 205; 1.83 µM (inactive) in the assay with TK-10; 0.146 µM (active) with K562; 0.327 µM (active) with SF-268.

With `CC1OC(=O)C(C(C)C)NC(=O)C(C(C)C)OC(=O)C(C(C)C)NC(=O)C(C)OC(=O)C(C(C)C)NC(=O)C(C(C)C)OC(=O)C(C(C)C)NC(=O)C(C)OC(=O)C(C(C)C)NC(=O)C(C(C)C)OC(=O)C(C(C)C)NC1=O` (centres undefined), the GI50 is 0.0025 µM (active) in the assay on HT-29; 0.00333 µM (active) in the assay on SF-539; 0.0025 µM (active) with MCF7; 0.00326 µM (active) in the assay on SK-OV-3; 0.00255 µM (active) in the assay with HOP-92; < 0.0001 µM (active) with 786-0. The GI50 with LOX IMVI was 0.00538 µM (active); with HOP-62 it was 0.0025 µM (active); in the assay on UACC-62, 0.0025 µM (active); with RPMI-8226, 0.0025 µM (active); with COLO 205, 0.0025 µM (active); with TK-10, < 0.0001 µM (active). Moreover, the GI50 in the assay on K562 is 0.00299 µM (active); in the assay with DU-145 it was 0.000102 µM (active); with SF-268, 0.00314 µM (active).
